In the supplement of paper PMC10307832:

Assays:
Assay in all cases: relative viability (nuclei count vs DMSO), 5 days (fraction); higher = more cells survive
Bexarotene + Trametinib = compound: C=C(c1ccc(C(=O)O)cc1)c1cc2c(cc1C)C(C)(C)CCC2(C)C [Bexarotene] + CC(=O)Nc1cccc(-n2c(=O)n(C3CC3)c(=O)c3c(Nc4ccc(I)cc4F)n(C)c(=O)c(C)c32)c1 [Trametinib] (partner 0.02 µM)
Procedure, shortened: (§1)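 Values are medians from duplicate plates. Each reflects relative viability, defined as the nuclei count of treated wells over that of vehicle wells. Lung cancer cell lines in 1536-well plates were pin-tool dosed one day after seeding with one drug alone or with a fixed anchor-drug dose plus five library-drug doses (not always all listed) in √10 steps, then fixed, stained and imaged at 4× after 5 days.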

Bexarotene + Phenformin = compound: C=C(c1ccc(C(=O)O)cc1)c1cc2c(cc1C)C(C)(C)CCC2(C)C [Bexarotene] + N=C(N)NC(=N)NCCc1ccccc1 [Phenformin] (partner 250 µM)
Procedure, shortened: as §1

Bexarotene + OSI-027 = compound: C=C(c1ccc(C(=O)O)cc1)c1cc2c(cc1C)C(C)(C)CCC2(C)C [Bexarotene] + COc1cccc2cc(-c3nc([C@H]4CC[C@H](C(=O)O)CC4)n4ncnc(N)c34)[nH]c12 [OSI-027] (partner 0.5 µM)
Procedure, shortened: as §1

Bexarotene = compound: C=C(c1ccc(C(=O)O)cc1)c1cc2c(cc1C)C(C)(C)CCC2(C)C [Bexarotene]
Procedure, shortened: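 Nuclei counted with MetaXpress define viability as the ratio of treated to vehicle wells, given as a median across plates. The lung cancer cell lines were in 1536-well plates, pinned with five √10-spaced library-drug doses and imaged at 4× after 5 days and Hoechst staining. Plates passed with control CV below 25% and at least one doubling.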

Cell Line | relative viability (Bexarotene + Trametinib; first compound 0.08 µM) | relative viability (Bexarotene + Trametinib; first compound 0.253 µM) | relative viability (Bexarotene + Trametinib; first compound 0.8 µM) | relative viability (Bexarotene + Trametinib; first compound 2.53 µM) | relative viability (Bexarotene + Trametinib; first compound 8 µM) | relative viability (Bexarotene + Phenformin; first compound 0.08 µM) | relative viability (Bexarotene + Phenformin; first compound 0.253 µM) | relative viability (Bexarotene + Phenformin; first compound 0.8 µM) | relative viability (Bexarotene + Phenformin; first compound 2.53 µM) | relative viability (Bexarotene + Phenformin; first compound 8 µM) | relative viability (Bexarotene + OSI-027; first compound 0.08 µM) | relative viability (Bexarotene + OSI-027; first compound 0.253 µM) | relative viability (Bexarotene + OSI-027; first compound 0.8 µM) | relative viability (Bexarotene + OSI-027; first compound 2.53 µM) | relative viability (Bexarotene + OSI-027; first compound 8 µM) | relative viability (Bexarotene; 0.08 µM) | relative viability (Bexarotene; 0.253 µM) | relative viability (Bexarotene; 0.8 µM) | relative viability (Bexarotene; 2.53 µM) | relative viability (Bexarotene; 8 µM)
HCC-78 | 0.833 | 0.952 | 0.545 | 0.708 | 0.861 | 1.01 | 0.732 | 0.599 | 0.596 | 0.73 | 0.389 | 0.325 | 0.331 | 0.34 | 0.399 | 1.09 | 0.889 | 0.844 | 0.849 | 1.08
HCC-366 | 0.357 | 0.375 | 0.361 | 0.295 | 0.263 | 0.624 | 0.608 | 0.579 | 0.533 | 0.597 | 1.2 | 0.968 | 0.974 | 0.888 | 0.913 | 1.06 | 0.998 | 1.02 | 0.999 | 1.02
HCC-827 | 0.525 | 0.576 | 0.493 | 0.496 | 0.51 | 0.51 | 0.444 | 0.493 | 0.463 | 0.444 | 0.843 | 0.739 | 0.715 | 0.867 | 0.74 | 1.09 | 0.993 | 0.961 | 1.05 | 0.937
HOP-62 | 0.412 | 0.502 | 0.385 | 0.412 | 0.422 | 0.738 | 0.701 | 0.698 | 0.651 | 0.571 | 0.92 | 0.841 | 0.847 | 0.803 | 0.802 | 1.13 | 1.11 | 1.15 | 1.04 | 1
IA-LM | – | – | – | – | – | – | – | – | – | – | – | – | – | – | – | 0.876 | 0.906 | 0.806 | 0.774 | 0.831
LC-2-ad | 1.06 | 0.941 | 0.96 | 0.968 | 0.948 | 0.607 | 0.578 | 0.611 | 0.521 | 0.546 | 0.894 | 0.944 | 0.779 | 0.8 | 0.881 | 0.989 | 1.08 | 1.06 | 1 | 0.98
LCLC-97TM1 | 0.187 | 0.216 | 0.157 | 0.165 | 0.191 | 0.473 | 0.438 | 0.406 | 0.454 | 0.451 | 0.427 | 0.54 | 0.598 | 0.561 | 0.515 | 1.03 | 0.969 | 1.02 | 0.829 | 0.939
LCLC-103H | 0.761 | 0.697 | 0.678 | 0.663 | 0.764 | 0.373 | 0.349 | 0.314 | 0.348 | 0.347 | 0.522 | 0.434 | 0.354 | 0.461 | 0.448 | 1.09 | 1.03 | 0.849 | 0.983 | 1.05
LK-2 | 0.838 | 0.895 | 0.779 | 0.719 | 0.915 | 1.15 | 0.506 | 0.381 | – | 0.47 | 0.262 | 0.207 | 0.237 | 0.202 | 0.255 | 1.32 | 0.942 | 1.04 | 0.977 | 0.998
